Laboratory results from publication PMC10872706 (The FEBS journal, 2023).
Values joined by “and” are separate entries in the source; they are usually repeats but may differ in a detail not shown here. Equal values may be shown once. Read-outs that look alike come from different tables or passages of the source.

Assays:
E. coli PdxI [1] = molecular target: T1, E. coli PdxI (Escherichia coli, UniProt P25906); experiment: Differential scanning fluorimetry; assay type: binding; settings: for effect on thermal stability (Tm) when added alone: vitamers 100 μM, NAD+ or NADH 400 μM; for effect on thermal stability (Tm) when added alone / Kd: 2 μM PdxI; for increase of thermal stability: increasing concentrations of dinucleotide; for Kd: read-out: apparent dissociation constant, from changes of Tm as a function of NADP(H) concentration, 20 mM KPi pH 7.3; for further change of Tm on adding vitamer to pre-incubated PdxI and dinucleotide: 200 μM vitamer, PL added to PdxI-NAD(P)+, PN to PdxI-NAD(P)H
T1 sequence (P25906 1-286): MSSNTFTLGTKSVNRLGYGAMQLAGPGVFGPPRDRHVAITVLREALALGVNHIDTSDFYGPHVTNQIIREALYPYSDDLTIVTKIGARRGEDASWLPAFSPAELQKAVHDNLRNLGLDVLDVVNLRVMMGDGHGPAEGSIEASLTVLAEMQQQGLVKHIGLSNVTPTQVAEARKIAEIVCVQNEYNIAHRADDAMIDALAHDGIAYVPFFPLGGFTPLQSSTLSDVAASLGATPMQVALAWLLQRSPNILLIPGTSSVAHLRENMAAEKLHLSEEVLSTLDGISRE

E. coli PdxI [2] = molecular target: T1, E. coli PdxI; experiment: Reactions catalysed by PdxI, discontinuous assay with HPLC quantification; assay type: biochemical
E. coli PdxI [3] = molecular target: T1, E. coli PdxI; experiment: Spectrophotometric kinetic characterisation of PdxI; settings: for type of product inhibition with respect to NADPH: NADPH varied, PL fixed at 38 μM
E. coli PdxI [4] = molecular target: T1, E. coli PdxI; experiment: Isothermal titration calorimetry; assay type: binding
[5] = tested on: E. coli pdxK, pdxY, pdxKY knock out strains; assay type: cell-based, Escherichia coli; settings: M9 medium, all these strains
[6] = tested on: E. coli BW25113 pdxI knock out strain; assay type: cell-based, Escherichia coli
[7] = tested on: E. coli BW25113 pdxI knock out strain; assay type: cell-based, Escherichia coli; settings: for beneficial effect of low concentrations on growth: low concentrations in M9 medium
[8] = tested on: E. coli BW25113 wild type; experiment: B6 vitamer levels in cell extracts by HPLC, wild type; assay type: cell-based, Escherichia coli
PdxK = settings: cited from earlier work
E. coli BW25113 cells = experiment: RT-qPCR relative expression of vitamin B6 metabolism genes; assay type: cell-based, Escherichia coli; settings: 0.1 mM vitamer in M9, relative to M9 = 100%; for Expression level of pdxI: (*) P < 0.01
[9] = tested on: E. coli BW25113 wild type; assay type: cell-based, Escherichia coli
E. coli PdxI [10] = molecular target: T1, E. coli PdxI; settings: in vitro; cited from earlier work
[11] = ligand alone titrated into PdxI
[12] = ligand alone titrated into PdxI (binary complex)
[13] = ligand alone titrated into PdxI, 20°C, pH 7.4, NB = non-binding ligand
[14] = medium supplemented with 1.5 mM PL
[15] = PL added to pre-incubated mixture of PdxI and NADPH (ternary complex)
[16] = medium supplemented with 0.1 mM PN

For NC(=O)C1=CN([C@@H]2O[C@H](COP(=O)(O)OP(=O)(O)OC[C@H]3O[C@@H](n4cnc5c(N)ncnc54)[C@H](O)[C@@H]3O)[C@@H](O)[C@H]2O)C=CC1 [NADH], the “effect on thermal stability (Tm) when added alone” value (from here on “effect on thermal stability (Tm)”) (E. coli PdxI [1]) was “no effect” and the “reaction rate with PL and NADH relative to that with NADPH” value (E. coli PdxI [2]; 200 μM PL, 400 μM dinucleotide) was 10 times slower.
In the case of NC(=O)C1=CN([C@@H]2O[C@H](COP(=O)(O)OP(=O)(O)OC[C@H]3O[C@@H](n4cnc5c(N)ncnc54)[C@H](OP(=O)(O)O)[C@@H]3O)[C@@H](O)[C@H]2O)C=CC1 [NADPH, reduced nicotinamide adenine dinucleotide phosphate], the Km (E. coli PdxI [3]; PL reduction to PN by NADPH, 37 °C, 20 mM KPi pH 7.3, 0.05 μM PdxI) is reported as 12 ± 4 µM, the “increase of thermal stability” value (E. coli PdxI [1]) is reported as “up to 9 °C” and the Kd (E. coli PdxI [1]) is reported as 81 ± 16 µM. For the same compound, the N value (E. coli PdxI [4]; [11]) was 1.13 ± 0.05, the ΔH (E. coli PdxI [4]; [12]) was -2.964 ± 0.0335 kcal/mol and the ΔS (E. coli PdxI [4]; [12]) was −18 ± 1 J mol^−1/deg. It also gave a Kd (E. coli PdxI [4]; [13]) of 4.2 ± 0.35 µM.
In the case of NC(=O)c1ccc[n+]([C@@H]2O[C@H](COP(=O)([O-])OP(=O)(O)OC[C@H]3O[C@@H](n4cnc5c(N)ncnc54)[C@H](OP(=O)(O)O)[C@@H]3O)[C@@H](O)[C@H]2O)c1 [NADP^+, oxidised nicotinamide adenine dinucleotide phosphate], the “type of product inhibition with respect to NADPH” value (E. coli PdxI [3]) is reported as “competitive inhibitor”, the “increase of thermal stability” value (E. coli PdxI [1]) is reported as “up to 9 °C” and the Kd (E. coli PdxI [1]) is reported as 856 ± 490 µM. For the same compound, the N value (E. coli PdxI [4]; [11]) was 0.99 ± 0.09, the ΔH (E. coli PdxI [4]; [12]) was -5.16 ± 0.134 kcal/mol and the ΔS (E. coli PdxI [4]; [12]) was −54 ± 2 J mol^−1/deg. It also gave a Kd (E. coli PdxI [4]; [13]) of 46.3 ± 1.97 µM.
For NC(=O)c1ccc[n+]([C@@H]2O[C@H](COP(=O)([O-])OP(=O)(O)OC[C@H]3O[C@@H](n4cnc5c(N)ncnc54)[C@H](O)[C@@H]3O)[C@@H](O)[C@H]2O)c1 [NAD^+], the “effect on thermal stability (Tm)” value (E. coli PdxI [1]) was “no effect”.
With Cc1ncc(CO)c(C=O)c1O [PL, pyridoxal] the “concentration at which PL toxicity is observed” value [5] was at least 1400 µM, the “increase of PL levels” value [6, 14] was “about 3400 fold” and the “effect on bacterial growth” value ([7]; 1 mM in M9 medium) was “toxicity”. For the same compound, the “effect on bacterial growth” value ([7]; 2 mM in M9 medium) was “nearly arrested”, the “beneficial effect of low concentrations on growth” value [7] was “not visible” and the “further change of Tm on adding vitamer to pre-incubated PdxI and dinucleotide” value (E. coli PdxI [1]) was “did not further increase Tm”. For the same compound, the “effect on thermal stability (Tm)” value (E. coli PdxI [1]) was “no effect”, the “increase of PL levels” value [8, 14] was “about 800 fold” and the “kcat of PdxK” value (PdxK; PL as substrate) was 2.3 s⁻¹. For the same compound, the Km (PdxK; read-out: KM for PL of PdxK) was 100 µM, the “Expression level of pdxB” value (E. coli BW25113 cells) was 97% and the “Expression level of pdxH” value (E. coli BW25113 cells) was 110%. For the same compound, the “Expression level of pdxJ” value (E. coli BW25113 cells) was 86%, the “Expression level of pdxK” value (E. coli BW25113 cells) was 105% and the “Expression level of pdxY” value (E. coli BW25113 cells) was 118%. The “Expression level of ybhA” value (E. coli BW25113 cells) was 110%, the “Expression level of pdxI” value (E. coli BW25113 cells) was 134% (*) and the effect on growth ([9]; up to 0.1 mM in M9 medium) was “beneficial”. The effect on growth ([9]; up to 1 mM in M9 medium) was “abolish this beneficial effect”, the “PL converted into PN at equilibrium” value (E. coli PdxI [2]; 200 μM PL, 400 μM NADH, 0.2 μM PdxI) was 98.3 ± 2.6% and the “PL converted into PN at equilibrium” value (E. coli PdxI [2]; 200 μM PL, 400 μM NADPH, 0.2 μM PdxI) was 96 ± 1.7%. For the same compound, the Kd (E. coli PdxI [4]) was 0.024 ± 0.01 µM, the N value (E. coli PdxI [4]; PL added to pre-incubated 1:1 mixture of PdxI and NADPH) was 0.61 and 0.61 ± 0.02 and the ΔH (E. coli PdxI [4]; [15]) was -0.884 ± 0.0359 kcal/mol. The ΔS (E. coli PdxI [4]; [15]) was 22 ± 1 J mol^−1/deg.
In the case of Cc1ncc(COP(=O)(O)O)c(C=O)c1O [PLP, Pyridoxal 5’-phosphate], the Km (E. coli PdxI [3]; PLP reduction to PNP by NADPH) is listed as over 1200 µM, the “effect on thermal stability (Tm)” value (E. coli PdxI [1]) is listed as “no effect” and the “activity of PdxI with the substrate” value (E. coli PdxI [10]) is listed as “no detectable activity”. For the same compound, the “conversion of PLP into PNP” value (E. coli PdxI [2]; 200 μM PLP, 400 μM NADPH, 0.2 μM PdxI) was “apparently complete”.
For Cc1ncc(CO)c(CN)c1O [PM, pyridoxamine], the “activity of PdxI with the substrate” value (E. coli PdxI [10]) is given as “no detectable activity” and the “conversion of PM to PL” value (E. coli PdxI [2]; NADP+ as electron acceptor) is given as “could not be detected”.
With Cc1ncc(CO)c(CO)c1O [PN, pyridoxine] the “rise of PLP levels” value [6, 16] was 1.8 fold, the “type of product inhibition with respect to NADPH” value (E. coli PdxI [3]) was “mixed inhibition” and the “beneficial effect of low concentrations on growth” value [7] was “not visible”. The “further change of Tm on adding vitamer to pre-incubated PdxI and dinucleotide” value (E. coli PdxI [1]) was “did not further increase Tm”, the “effect on thermal stability (Tm)” value (E. coli PdxI [1]) was “no effect” and the “rise of PLP levels” value [8, 16] was 1.5 fold. The “Expression level of pdxB” value (E. coli BW25113 cells) was 103%, the “Expression level of pdxH” value (E. coli BW25113 cells) was 95% and the “Expression level of pdxJ” value (E. coli BW25113 cells) was 88%. For the same compound, the “Expression level of pdxK” value (E. coli BW25113 cells) was 107%, the “Expression level of pdxY” value (E. coli BW25113 cells) was 115% and the “Expression level of ybhA” value (E. coli BW25113 cells) was 108%. The “Expression level of pdxI” value (E. coli BW25113 cells) was 98%, the effect on growth ([9]; up to 1 mM in M9 medium) was “beneficial effect” and the “PN converted to PL (reverse reaction)” value (E. coli PdxI [2]; 200 μM PN, 400 μM NADP+, 1 μM PdxI) was 5 ± 1.3%.
